According to US7750046B2, “Treatment of symptoms associated with irritable bowel syndrome” (The Board of Trustees of the Leland Stanford Jr. University, priority 2001, dated 2010):
“Also recorded” adds a separate entry of the source.

What was measured:
Type in all cases: in vivo, human
[1] = tested on: subjects who met the Rome Criteria for IBS; test: Brief Mood Survey in IBS study; details: for Regression analysis: dependence of mood score on drug dosage: larger doses
Excerpt: (§1) This is a longitudinal single blinded, randomized placebo controlled study in which patients act as their own controls. Subjects were volunteers who met the Rome Criteria for IBS and without other active bowel disease (i.e. GERD, colon cancer). Both adult men and women participated, ranging in age from 23 to 75 years old, with greater number of women by a ratio of 2.5:1. Subjects responded to a Bowel Symptom Questionnaire (B. Naliboff, UCLA) as well as a Brief Mood Survey (D. Burns, Stanford). […] In addition, data was collected during a washout period of one week without any study drug.
(§2) Benefit in treating chronic IBS using nerve-acting agents was quantified by a decrease in mean values of abdominal pain with a 20-point Visual Analogue scale and a decrease in bowel symptoms (bloating, etc.) using a 20-point scale. Mood was also followed by a Brief Mood Survey, which rates Depression, Anxiety, Panic, Anger and Suicidal Urge (88 points maximum total).

[2] = tested on: subjects who met the Rome Criteria for IBS; test: VAS abdominal pain score (20-point Visual Analogue scale) in IBS study; details: for Regression analysis: dependence of VAS score on drug dosage: larger doses; for p-value of drop in mean VAS pain scores: oral
Excerpt: as §1
(§3) A titration period of three to four weeks is being used to stabilize each patient on an efficacious dose of medication. […] During each week of the titration period, the cocktail was modified to allow a gradual increase or decrease in dose. Results were collected weekly by questionnaires.
as §2

[3] = tested on: subjects who met the Rome Criteria for IBS; test: IBS study, symptom scores overall (VAS pain, bloating, mood); details: for Drug effect versus placebo effect, overall / Reduction of symptoms overall (H0 no reduction vs H1 some reduction): result in words
Excerpt: as §1, §3, §2

[4] = tested on: subjects who met the Rome Criteria for IBS; test: Bloating score (20-point scale, Bowel Symptom Questionnaire) in IBS study; details: for Regression analysis: dependence of bloating score on drug dosage: larger doses
Excerpt: as §1, §3, §2

[5] = tested on: subjects who met the Rome Criteria for IBS; test: Side effects reported in IBS study; details: 25 mg qhs; resolved after discontinuation
Excerpt: This is a longitudinal single blinded, randomized placebo controlled study in which patients act as their own controls. Subjects were volunteers who met the Rome Criteria for IBS and without other active bowel disease (i.e. GERD, colon cancer). Both adult men and women participated, ranging in age from 23 to 75 years old, with greater number of women by a ratio of 2.5:1. Subjects responded to a Bowel Symptom Questionnaire (B. Naliboff, UCLA) as well as a Brief Mood Survey (D. Burns, Stanford). Baseline questionnaire results were taken just prior to any drug treatment as well as shortly after. In addition, data was collected during a washout period of one week without any study drug. Drugs studied included intravenous lidocaine and a trial of the oral mexiletine, topiramate, gabapentin or placebo.
as §3

[6] = intravenous, 22 subjects, 20 point scale

Row | Compound | Regression analysis: dependence of mood score on drug dosage [1] | Regression analysis: dependence of VAS score on drug dosage [2] | p-value of drop in mean VAS pain scores ([2]; 300 mg) | p-value of drop in mean VAS pain scores ([2]; 600 mg) | Drug effect versus placebo effect, overall [3] | Reduction of symptoms overall (H0 no reduction vs H1 some reduction) [3] | Regression analysis: dependence of bloating score on drug dosage [4] | Effect on mood (H0 no reduction vs H1 some reduction) ([1]; result in words) | VAS Pain scores, mean reduction [2, 6] | Reduction of VAS (H0 no reduction vs H1 some reduction) ([2]; result in words) | Relief of symptoms of abdominal pain, bloating and distension in IBS ([3]; intravenous) | Reduction of symptoms overall (H0 no reduction vs H1 some reduction) ([3]; listed as Lidocaine) | Bloating, mean reduction [4, 6] | Reduction of bloating (H0 no reduction vs H1 some reduction) ([4]; result in words) | VAS: drug effect versus placebo effect ([2]; result in words) | Results in decreasing bloating ([4]; all dosages, 300 mg, 450 mg & 900 mg) | Bloating: drug effect versus placebo effect ([4]; result in words) | Side effects reported: fatigue, number of subjects [5] | Regression analysis: dependence of any score on drug dosage ([3]; larger doses) | Effect on decreasing bloating ([4]; 60 mg)
1 | NCC1(CC(=O)O)CCCCC1 [gabapentin] | not very important for mood | some effect | 0.06 | 0.04 | different from placebo at doses 600 mg and higher | become more pronounced as the dosage is increased | some effect |  |  |  |  |  |  |  |  |  |  |  |  | 
2 | CCN(CC)CC(=O)Nc1c(C)cccc1C [lidocaine] |  |  |  |  | much stronger effect than placebo | All patients had a significant drop in their scores |  | highly significant | 4.80 | highly significant | very effective | most influential drug of all | 6.8 | highly significant |  |  |  |  |  | 
3 | Cc1cccc(C)c1OCC(C)N (centres unmarked) [mexiletine] | not very important for mood | some effect |  |  |  | significant at all dosages | some effect |  |  |  |  |  |  |  | different from placebo at all levels | significant results in decreasing bloating | different from placebo at all levels |  |  | 
4 | CC1(C)O[C@@H]2[C@@H](CO[C@@]3(COS(N)(=O)=O)OC(C)(C)O[C@@H]23)O1 [topiramate] |  |  |  |  |  | least effect of all drugs; also recorded: barely become significant at doses of 50 mg and higher |  |  |  |  |  |  |  |  | different from placebo for VAS and bloating at doses 50 mg and higher |  | different from placebo for VAS and bloating at doses 50 mg and higher | Two | do not significantly reduce any score in a predictable manner | borderline effect
